For this experiment, the system named is CEM cells HIV-1 protection, formazan growth assay. The experiment can be described thus: NCI AIDS Antiviral Assay. Conditions: for IC50: measured here: growth of uninfected CEM cells. The procedure, abridged: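 Protection of CEM cells against HIV-1 was scored from cell growth (soluble formazan) across five concentrations, with parallel uninfected cells. Lack of protection may reflect toxicity.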

Several values for one entry are separate records, joined by “and”; a condition that tells them apart may be missing. Identical values can stand only once. Activity calls are given as the source filed them.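 The calls were made as follows: active = compounds giving half or more protection of infected cells from virus-caused growth loss, again on retest; inactive = the rest.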 Where a SMILES comes first, the peptide text is derived from it. The star is where a group is joined. Boc = CC(C)(C)OC(=O)*

As a reminder, the EC50 is the concentration needed to bring the measured effect to its halfway point. In general, IC50 refers to the point on the concentration scale where inhibition reaches its midpoint. With `CC(=O)N1N=C(c2ccc3ccccc3c2O)CC1C(=O)c1ccco1` (centres undefined), the EC50 was over 200 µM and the IC50 amounted to 23.4 µM.

Turning to `CCCCCCCCCCCCCCCC(=O)OCC1OC(n2cc(F)c(=O)[nH]c2=O)C(NC(=O)N(CCCl)N=O)C(O)C1O` (centres undefined), the EC50 was over 20.4 µM and the IC50 was determined as 3.47 µM.

Turning to `Oc1ccc2c(c1)OCC1c3ccccc3OC21` (centres undefined), the result was inactive.

On to `COc1cccc2c1CCc1sc(CN3CCN(C)CC3)nc1-2`, for which the EC50 was over 200 µM and the 50% inhibitory concentration (IC50) was 30.2 µM.

Turning to `CSc1nc(N)c2c(-c3ccccc3)c3c(nc2n1)CCCC3`, the EC50 was over 200 µM and the IC50 was over 200 µM.

As to `COC1[C@H](NC(=O)OC(C)(C)C)C(=O)N1Cc1ccccc1` (some centres undefined), the outcome was inactive.

Regarding `COC(=O)Cn1cnc2c(Cl)nc(Nc3ccccc3)nc21`, the EC50 was over 200 µM and the IC50 turned out to be 63.1 µM.

As for `COc1ccc2nc3ccc(OC)cc3c(S(=O)Cc3ccc([N+](=O)[O-])cc3)c2c1` (centres undefined), the EC50 was over 200 µM and the IC50 is 3.24 µM.

Regarding `CC(C)(C)N/N=C(/Cc1nc2c3c(ccc2[nH]c1=O)C(=O)c1ccccc1C3=O)C(=O)NC1=C(Cl)C(=O)c2ccccc2C1=O`, the EC50 is over 11.5 µM and the IC50 was over 11.5 µM.

Turning to `O=C(Cc1nc2ccccc2c(=O)n1-c1ccccc1Cl)c1ccncc1`, the EC50 was over 5.37 µM and the IC50 is over 5.37 µM.

`O=C1C2C(C(=O)N1Cc1ccccc1)N(Cc1ccccc1)C(=O)N2Cc1ccccc1` (centres undefined): the EC50 was over 12.3 µM and the IC50 is over 12.3 µM.

As for `O=C1C=CC2(CCCCCCC2=O)CC1` (centres undefined), the outcome was inactive.

Consider `Cc1oncc1NC1=CC(=O)C(=O)c2ccccc21`, for which the EC50 was over 200 µM and the IC50 was 8.51 µM.

For `Cn1cnc2c(sc3nc4ccccc4n32)c1=N`, the EC50 was over 200 µM and the IC50 was over 200 µM.

For the compound `COc1ccc(-c2cc(Cc3cccs3)c(=O)[nH]n2)cc1`, the outcome was inactive.

Consider `O=c1n(-c2ccccc2)c(=O)n2n1C1CC3c4ccccc4C1C2C31CC1` (centres undefined), for which the EC50 is over 35.5 µM and the IC50 was over 35.5 µM.

For `O=C(O)C(CO)NC(=O)n1c2ccccc2c2ccccc21` (centres undefined), the EC50 was over 832 µM and the IC50 was found to be 537 µM.

In the case of `ClC(Cl)=C(Cl)C1(Cl)CC1COCc1ccccc1` (centres undefined), the EC50 is over 30.9 µM and the IC50 was found to be 24.5 µM.

Regarding `N#C/C=C/c1cccc(C#N)c1`, the EC50 is over 46.8 µM and the IC50 was over 46.8 µM.

Turning to `C[C@@H]1C(=O)c2c(O)cc3c(c2O[C@@H]1C)CCC(C)(C)O3`, the EC50 was over 200 µM and the IC50 amounted to 47.9 µM.

Consider `Cc1n[nH]c(=O)n1/N=C\c1ccccc1`, for which the EC50 was over 200 µM and the IC50 is over 200 µM.

For the compound `COc1cc(C2c3cc4c(cc3OC(NN=C(C)C)C2C)OCO4)cc(OC)c1O` (centres undefined), the EC50 is over 200 µM and the IC50 worked out at 5.5 µM.

Turning to `CCC1CC[N-]CC1.CCC1CC[N-]CC1.CCC1CC[N-]CC1.CCC1CC[N-]CC1.N#C[S-].N#C[S-].[Mn]`, the EC50 was over 200 µM and the IC50 worked out at 27.5 µM.

As to `CC(C)OCN1COCN=C1NC#N`, the EC50 was over 447 µM and the IC50 is over 447 µM.

As to `CSc1nc2[nH]ccc2c(=O)[nH]1`, the result was inactive.

On to `COC(=O)CCS/C=C/C(=O)O`, for which the EC50 was over 1320 µM and the IC50 is over 1320 µM.

`CCC(=O)CCCC=C(c1cc(Cl)c(OC)c(C(=O)CC)c1)c1cc(Cl)c(OC)c(C(=O)CC)c1`: the EC50 was over 200 µM and the IC50 stood at 6.31 µM.

Turning to `O=c1cc(NNCc2ccccc2)[nH]c(=O)[nH]1`, the EC50 is over 200 µM and the IC50 stood at 57.5 µM.

`COc1ccc(NC2Oc3cc4c(cc3C(c3cccc(OC)c3OC)C2C)OCO4)cc1` (centres undefined): the EC50 is over 200 µM and the IC50 came out at 1.95 µM.

Take `O=C1/C(=C/c2ccc(Cl)cc2)CNC/C1=C\c1ccc(Cl)cc1`: the EC50 was over 151 µM; the IC50 is 10.5 µM and 1.05 µM.

For `CCC1OC2C(CC=C(C)C)=C3OC(C)(O)C(C)(CC)C(=O)C3=C3OC(=O)C=C1C32` (centres undefined), the EC50 is over 200 µM and the IC50 was 33.1 µM.

With `COc1cc([N+](=O)[O-])c(S(=O)(=O)O)cc1-n1nc(-c2ccccc2)n[n+]1-c1cc(S(=O)(=O)[O-])c([N+](=O)[O-])cc1OC`, the EC50 is over 100 µM and the IC50 was over 100 µM.

As for `COc1cc(C2SCC(=O)N2c2ccc(-n3c(-c4ccccc4)nc4ccccc4c3=O)cc2)cc(OC)c1OC` (centres undefined), the EC50 was over 200 µM and the IC50 turned out to be 178 µM.

In the case of `COc1cc(O)c(C(C)=O)c(O)c1`, the EC50 was over 200 µM and the IC50 came out at 19.1 µM.

Regarding `S=C1NC(=NC2CCCCC2)C2(CCN(CCc3ccccc3)CC2)N1c1ccccc1`, the EC50 was over 100 µM and the IC50 was 53.7 µM.

Regarding `c1ccc2[nH]c(C3=NCCN3)nc2c1`, the EC50 was over 53.7 µM and the IC50 was over 53.7 µM.

As to `CNS(=O)(=O)NNS(=O)(=O)c1ccc2ccccc2c1`, the EC50 was over 575 µM and the IC50 came to 170 µM.

In the case of `N#CC(C#N)=c1ccc(=C2N3CCCC3CN2C23CC4CC(CC(C4)C2)C3)cc1` (centres undefined), the result was inactive.

Consider `ClC(Cl)(Cl)C1CCOC1n1nc2ccccc2n1` (centres undefined), for which the EC50 is over 200 µM and the IC50 is over 200 µM.

For `O=C(CCCN1CCC(Nc2ccccc2)(c2nnnn2C2CCCCC2)CC1)c1ccc(F)cc1`, the EC50 is over 200 µM and the IC50 is 75.9 µM.

Turning to `O=[N+]([O-])c1cccc(C2=NN(c3ccccc3)C3c4cc(Br)ccc4OCC23)c1` (centres undefined), the EC50 was over 11.5 µM and the IC50 is over 11.5 µM.

On to `Cc1nc2ccc(N=Nc3c(O)ccc4ccccc34)cc2[nH]1`, for which the EC50 is over 61.7 µM and the IC50 came to 55 µM.

As for `O=[N+]([O-])c1cc(I)cc(/C=N/NS(=O)(=O)c2ccc(F)cc2)c1O`, the EC50 is over 389 µM and the IC50 stood at 67.6 µM.

Consider `CCOC(=O)C(C(=S)Nc1ccccc1)c1nn2c(=O)cc(C)nc2s1` (centres undefined), for which the EC50 was over 200 µM and the IC50 is 34.7 µM.

As for `COc1cc(N2C(=O)C(=O)C3(CCCCC3)C2=O)cc(OC)c1OC`, the EC50 was over 200 µM and the IC50 was over 200 µM.

With `NC1C2CN3CCC(O2)C13` (centres undefined), the result was inactive.

For `CC1(O)c2ccccc2[P+](C)(c2ccccc2)c2ccccc21` (centres undefined), the EC50 is over 562 µM and the IC50 amounted to 29.5 µM.

As to `O=CN/C=C/c1ccccc1`, the EC50 was over 200 µM and the 50% inhibitory concentration (IC50) was over 200 µM.

Consider `O=C(CC(c1ccccc1)C1C(=O)C12CCCC2)c1ccccc1` (centres undefined), for which the EC50 is over 81.3 µM and the IC50 was over 81.3 µM.

In the case of `CC(NC(=O)C(NC(=O)OC(C)(C)C)C(C)C)C(=O)NCC(=O)O` (stereo not drawn) (Boc-Val-Ala-Gly-OH; configuration not given here), the EC50 is over 200 µM and the IC50 was over 200 µM.

In the case of `NC(N)=NC(N)=Nc1cccc(S(=O)(=O)c2cccc(N=C(N)N=C(N)N)c2)c1`, the EC50 is 126 µM and the IC50 was over 200 µM.

On to `O=c1[nH]nc(Cc2ccccc2)n1O`, for which the EC50 is over 200 µM and the IC50 is over 200 µM.

As to `NNC(=O)C(=O)N/N=C1/CCCC1C(=O)CCC(=O)Nc1ccc(Cl)cc1` (centres undefined), the EC50 was over 66.1 µM and the 50% inhibitory concentration (IC50) was over 66.1 µM.

In the case of `C=CCC1(c2ccccc2)Oc2ccccc2-n2cccc2C1=O` (centres undefined), the EC50 was 7.08 µM and the half-maximal inhibitory concentration (IC50) was determined as 10.5 µM.

As to `CN(C)c1ccc(C2N(C)CCN2C)cc1`, the EC50 is over 200 µM and the IC50 was over 200 µM.

Turning to `O=c1nc2[nH]nc(-c3ccccc3)c2n[nH]1`, the outcome was inactive.

For `CC(/C=C/c1ccccc1)=N/NS(=O)(=O)c1ccc(N)cc1`, the EC50 is over 115 µM and the IC50 was over 115 µM.

For the compound `CCOC(=O)N1CC2(C(=O)OC)C=CC1C(C(=O)OC)C2` (centres undefined), the EC50 was over 200 µM and the IC50 is over 200 µM.

`CCOP(=O)(OCC)/C(C#N)=C/c1ccccn1`: the EC50 is 148 µM and the IC50 was over 200 µM.

In the case of `O=c1[nH]cnc2c1ncn2C1CCC2(CO)CC12` (centres undefined), the EC50 was over 50.1 µM and the IC50 is over 50.1 µM.

In the case of `COC(=O)CC=C(c1cc(Cl)c(OC)c(C(=O)OC)c1)c1cc(Cl)c(OC)c(C(=O)OC)c1`, the EC50 was over 200 µM and the half-maximal inhibitory concentration (IC50) was 41.7 µM.

In the case of `CC1c2c(cc(=O)n(Cc3ccccc3)c2O)C(=O)N1Cc1ccccc1` (centres undefined), the EC50 was over 72.4 µM and the IC50 amounted to 61.7 µM.

Take `CC(=O)Oc1ccc2c(-c3ccccc3)c(Oc3ccc(Cl)cc3)c(=O)oc2c1`: the EC50 was over 200 µM and the IC50 is 15.8 µM.

Turning to `O=C(O)c1cc2cc([N+](=O)[O-])ccc2oc1=O`, the EC50 was over 447 µM and the IC50 is over 447 µM.

Turning to `CCOC1SC(SC)=NN1C(=O)C(OC(C)=O)C(OC(C)=O)C(OC(C)=O)C(OC(C)=O)C(=O)N1N=C(SC)SC1OCC` (centres undefined), the outcome was inactive.

As for `C[Si](C)(C)OC1c2[nH]c3ccccc3c2CN2C(=O)CCC12` (centres undefined), the EC50 is over 200 µM and the IC50 was over 200 µM.

`CCOC(=O)/C(C#N)=C/c1ccc(Br)cc1`: the EC50 is over 93.3 µM and the IC50 was over 93.3 µM.

For the compound `N#CSCC(Cl)=CCl` (mixture of isomers), the EC50 is over 200 µM and the IC50 is 49 µM.

Take `CC(=O)NNc1nc(C)c(C(/C=C/c2ccc([N+](=O)[O-])cc2)=N/NC(N)=S)s1`: the EC50 is over 69.2 µM and the concentration for half-maximal inhibition (IC50) was over 69.2 µM.

Take `Cc1cccc(NC(=S)N/N=C(/c2ccccc2)c2ccccn2)c1`: the EC50 was over 0.2 µM and the IC50 stood at 0.0933 µM.

On to `O=C1c2cc([N+](=O)[O-])cnc2S(=O)(=O)N1c1ccc(Br)cc1`, for which the EC50 is over 200 µM and the IC50 was found to be 95.5 µM.

For the compound `COc1ccccc1/C=C1\NC(=S)N(/C=C2\C(=O)Oc3ccccc3C2=O)C1=O`, the EC50 is over 200 µM and the IC50 was found to be 81.3 µM.

Consider `CCCC1C(=O)Nc2cccc3ncn(c23)C1=O` (centres undefined), for which the EC50 was over 200 µM and the IC50 is 186 µM.

Regarding `CC(C)=CCC[C@@H](C)C1=C(O)C(Nc2ccccc2Br)=C(C)C(=O)C1=O`, the EC50 is over 100 µM and the IC50 was 8.13 µM.

The values above are taken from PubChem BioAssay AID179 (DTP/NCI, 2004).
